For the first assay, the system named is RSV A2. Kind of assay: Screening for RSV inhibition using Viral ToxGlo assay (cytopathic effect inhibition in HEp-2 cells). The class given is cell-based, Respiratory Syncytial Virus (RSV). To be noted: RSV A2 in HEp-2 cells, MOI 0.5, 72h p.i., cytopathic effect inhibition relative to virus control, Viral ToxGlo luminescence. In a few lines: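 HEp-2 cells in 2% FBS medium infected with RSV A2 right after compound addition (max 1% DMSO), uninfected wells used for cytotoxicity. After 72 h p.i. at 37 °C/5% CO2, cell viability read by Viral ToxGlo luminescence as measure of cytopathic effect.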
Consider `O=C(N=C1NCCN1)c1cc(F)c(Nc2cccc(C3=NCCN3)c2)c(C2CC2)c1` [Compound 169, 3-cyclopropyl-4-{[3-(4,5-dihydro-1H-imidazol-2-yl)phenyl]amino}-5-fluoro-N-(imidazolidin-2-ylidene)benzamide], for which the EC50 (usually the midpoint of the concentration-response curve) stood at 13.6 nM.

The same assay, now with this note: human respiratory syncytial virus; RSV A2 in HEp-2 cells, MOI 0.5, 72h p.i., cytopathic effect inhibition relative to virus control, Viral ToxGlo luminescence.
As to `CC1(NC(=O)c2cccc(Nc3c(C#N)cc(C(=O)N=C4NCCN4)cc3C3CC3)c2)CC1` [Compound 149, 3-cyano-5-cyclopropyl-N-[imidazolidin-2-ylidene]-4-({3-[(1-methylcyclopropyl)carbamoyl]phenyl}amino)benzamide], the EC50 is 45.8 nM.
Regarding `CC1(NC(=O)c2nccc(Nc3ccc(C(=O)N=C4NCCN4)cc3C3CC3)c2Cl)CC1` [Compound 150, 3-chloro-4-[(2-cyclopropyl-4-{[imidazolidin-2-ylidene]carbamoyl}phenyl)amino]-N-(1-methylcyclopropyl)pyridine-2-carboxamide], the EC50 came to 263 nM.
The same measure, in the same setting: next, `N#CC1(NC(=O)c2ccnc(Nc3c(F)cc(C(=O)N=C4NCCN4)cc3C3CC3)c2F)CC1` [Compound 152, N-(1-cyanocyclopropyl)-2-[(2-cyclopropyl-6-fluoro-4-{[imidazolidin-2-ylidene]carbamoyl}phenyl)amino]-3-fluoropyridine-4-carboxamide]: 1140 nM.
Still for that read-out and setting: with `O=C(N=C1NCCN1)c1cc(F)c(Nc2nccc(C(=O)N3CCOCC3)c2Cl)c(C2CC2)c1` [Compound 153, 4-{[3-chloro-4-(morpholine-4-carbonyl)pyridin-2-yl]amino}-3-cyclopropyl-5-fluoro-N-[imidazolidin-2-ylidene]benzamide] the figure was 31.6 nM; with `O=C(N=C1NCCN1)c1cc(F)c(Nc2nccc(C(=O)N3C[C@H]4C[C@@H]3CO4)c2Cl)c(C2CC2)c1` [Compound 154, 4-({3-chloro-4-[(1R,4R)-2-oxa-5-azabicyclo[2.2.1]heptane-5-carbonyl]pyridin-2-yl}amino)-3-cyclopropyl-5-fluoro-N-[imidazolidin-2-ylidene]benzamide], 69.8 nM.
Same read-out and setting: next, `O=C(N=C1NCCN1)c1cc(F)c(Nc2nccc(C(=O)N3C[C@@H]4C[C@H]3CO4)c2Cl)c(C2CC2)c1` [Compound 155, 4-({3-chloro-4-[(1S,4S)-2-oxa-5-azabicyclo[2.2.1]heptane-5-carbonyl]pyridin-2-yl}amino)-3-cyclopropyl-5-fluoro-N-[imidazolidin-2-ylidene]benzamide]: 51.8 nM.
On to `O=C(N=C1NCCN1)c1cc(F)c(Nc2nccc(C(=O)N3CCOCC3)c2F)c(C2CC2)c1` [Compound 156, 3-cyclopropyl-5-fluoro-4-{[3-fluoro-4-(morpholine-4-carbonyl)pyridin-2-yl]amino}-N-[imidazolidin-2-ylidene]benzamide], for which the EC50 stood at 40.7 nM.
Regarding `CC1(NC(=O)c2nccc(Nc3c(F)cc(C(=O)N=C4NCCN4)cc3C3CC3)c2Cl)CC1` [Compound 157, 3-chloro-4-[(2-cyclopropyl-6-fluoro-4-{[imidazolidin-2-ylidene]carbamoyl}phenyl)amino]-N-(1-methylcyclopropyl)pyridine-2-carboxamide], the EC50 amounted to 26.6 nM.
Regarding `O=C(N=C1NCCN1)c1cc(F)c(Nc2cccc(C(=O)N3CCOCC3)c2F)c(C2CC2)c1` [Compound 158, 3-cyclopropyl-5-fluoro-4-{[2-fluoro-3-(morpholine-4-carbonyl)phenyl]amino}-N—[imidazolidin-2-ylidene]benzamide], the EC50 came to 6.8 nM.
Still for that read-out and setting: next, `O=C(N=C1NCCN1)c1cc(F)c(Nc2nccc(C(=O)N3C[C@@H]4C[C@H]3CO4)c2F)c(C2CC2)c1` [Compound 159, 3-cyclopropyl-5-fluoro-4-({3-fluoro-4-[(1S,4S)-2-oxa-5-azabicyclo[2.2.1]heptane-5-carbonyl]pyridin-2-yl}amino)-N—[imidazolidin-2-ylidene]benzamide]: 225 nM; `CC(C)=CCn1nnc(-c2cccc(Nc3ccc(C(=O)/N=C4\NCCN4C)cc3C3CC3)c2)n1` [Compound 160, 3-cyclopropyl-4-({3-[2-(3-methylbut-2-en-1-yl)-2H-1,2,3,4-tetrazol-5-yl]phenyl}amino)-N-[1-methylimidazolidin-2-ylidene]benzamide]: 545 nM; `CC1(C(=O)Nc2cccc(Nc3ccc(C(=O)N=C4NCCN4)cc3C3CC3)c2)COC1` [Compound 161, N-{3-[(2-cyclopropyl-4-{[imidazolidin-2-ylidene]carbamoyl}phenyl)amino]phenyl}-3-methyloxetane-3-carboxamide]: 690 nM.
Same read-out and setting: next, `CC1(C(=O)Nc2cccc(Nc3c(F)cc(C(=O)N=C4NCCN4)cc3C3CC3)c2)COC1` [Compound 163, N-{3-[(2-cyclopropyl-6-fluoro-4-{[imidazolidin-2-ylidene]carbamoyl}phenyl)amino]phenyl}-3-methyloxetane-3-carboxamide]: 35 nM.
Still for that read-out and setting: with `O=C(N=C1NCCN1)c1cc(F)c(Nc2nccc(C(=O)NC34CC(C3)C4)c2Cl)c(C2CC2)c1` [Compound 164] the figure was 3.8 nM.
Turning to `CC1(NC(=O)c2cccc(Nc3ccc(C(=O)N=C4NCCN4)cc3C3CC3)c2Cl)CC1` [Compound 167, 4-({2-chloro-3-[(1-methylcyclopropyl)carbamoyl]phenyl}amino)-3-cyclopropyl-N-[imidazolidin-2-ylidene]benzamide], the EC50 came out at 17.8 nM.

These data come from patent US12617756B2 (ABIVAX, priority 2019, dated 2026).
